Source: patent publication US12145941B2, “Heterocyclic antiviral agents” (ENANTA PHARMACEUTICALS, INC., priority 2021, dated 2024)

target: SARS-CoV-2 3CL-protease (Severe acute respiratory syndrome coronavirus 2 (2019-nCoV) (SARS-CoV-2), UniProt P0DTD1); assay: SARS-CoV-2 3C-like (3CL) protease fluorescence assay (FRET); type: biochemical; conditions: recombinant SARS-CoV-2 3CL-protease 10 nM, 30 min preincubation at RT, TAMRA-SITSAVLQSGFRKMK-Dabcyl-OH substrate, run in duplicate
Protocol: SARS-CoV-2 3C-like (3CL) protease fluorescence assay (FRET): Recombinant SARS-CoV-2 3CL-protease was expressed and purified. TAMRA-[…]-Dabcyl-OH peptide 3CLpro substrate was synthesized. Black, low volume, round-bottom, 384 well microplates were used. In a typical assay, 0.85 μL of test compound was dissolved in DMSO then incubated with SARS-CoV-2 3CL-protease (10 nM) in 10 μL assay buffer (50 mM HEPES [pH 7.5], 1 mM DTT, 0.01% BSA, 0.01% Triton-X 100) for 30 min at RT. Next, 10 μL of 3CL-protease substrate (40 μM) in assay buffer was added and the assays were monitored continuously for 1 h in an Envision multimode plate reader operating in fluorescence kinetics mode with excitation at 540 nm and emission at 580 nm at RT. No compound (DMSO only) and no enzyme controls were routinely included in each plate. All experiments were run in duplicate. Data Analysis: SARS-CoV-2 3CL-protease enzyme activity was measured as initial velocity of the linear phase (RFU/s) and normalized to controlled samples DMSO (100% activity) and no enzyme (0% activity) to determine percent residual activity at various concentrations of test compounds (0-10 μM). Data were fitted to normalized activity (variable slope) versus concentration fit in GraphPad Prism 7 to determine IC50.

| SMILES | IC50 |
| --- | --- |
| CC(C)C[C@@H](C(=O)N1C[C@]2(C[C@H]1C#N)C(=O)Nc1ccccc12)N1Cc2cc(Br)ccc2C1=O [Compound 9, (3R,5'S)-1′-((S)-2-(5-bromo-1-oxoisoindolin-2-yl)-4-methylpentanoyl) oxospiro[indoline-3,3′-pyrrolidine]-5′-carbonitrile] | < 100 nM |
| CC(C)C[C@H](C(=O)N1C[C@]2(C[C@H]1C#N)C(=O)Nc1ccccc12)n1cccc(-c2ccc(F)cc2)c1=O [Compound 25-b] | > 1000 nM |

same assay, conditions: recombinant SARS-CoV-2 3CL-protease 10 nM, 30 min preincubation at RT, TAMRA-[…]-Dabcyl-OH substrate, run in duplicate

| SMILES | IC50 |
| --- | --- |
| CC(C)C[C@@H](C(=O)N1C[C@]2(C[C@H]1C#N)C(=O)Nc1ccccc12)N1CCc2cccc(F)c2C1=O [Compound 1, (3R,5'S)-1′-((S)-2-(8-fluoro-1-oxo-3,4-dihydroisoquinolin-2(1H)-yl)-4-methylpentanoyl)-2-oxospiro[indoline-3,3′-pyrrolidine]-5′-carbonitrile] | 100 to 1000 nM |
| CC(C)C[C@@H](C(=O)N1C[C@]2(C[C@H]1C#N)C(=O)Nc1ccccc12)N1CCc2ccc(F)cc2C1=O [Compound 2] | < 100 nM |
| CC(C)C[C@@H](C(=O)N1C[C@]2(C[C@H]1C#N)C(=O)Nc1ccccc12)N1CCc2c(F)cccc2C1=O [Compound 3] | < 100 nM |
| CC(C)C[C@@H](C(=O)N1C[C@]2(C[C@H]1C#N)C(=O)Nc1ccccc12)N1CCc2cc(F)ccc2C1=O [Compound 4] | < 100 nM |
| CC(C)(C)C[C@@H](C(=O)N1C[C@]2(C[C@H]1C#N)C(=O)Nc1ccccc12)N1CCc2c(F)cccc2C1=O [Compound 5] | < 100 nM |
| CC(C)(C)C[C@@H](C(=O)N1C[C@]2(C[C@H]1C#N)C(=O)Nc1ccccc12)N1CCc2cc(F)ccc2C1=O [Compound 6] | < 100 nM |
| CC(C)(C)C[C@@H](C(=O)N1C[C@]2(C[C@H]1C#N)C(=O)Nc1ccccc12)N1CCc2ccc(F)cc2C1=O [Compound 7] | < 100 nM |
| CC(C)(C)C[C@@H](C(=O)N1C[C@]2(C[C@H]1C#N)C(=O)Nc1ccccc12)N1CCc2cccc(F)c2C1=O [Compound 8] | 100 to 1000 nM |
| CC(C)C[C@@H](C(=O)N1C[C@]2(C[C@H]1C#N)C(=O)Nc1ccccc12)N1Cc2c(cccc2C(F)(F)F)C1=O [Compound 10] | < 100 nM |
| CC(C)(C)C[C@@H](C(=O)N1C[C@]2(C[C@H]1C#N)C(=O)Nc1ccccc12)N1Cc2c(cccc2C(F)(F)F)C1=O [Compound 11] | < 100 nM |
| CC(C)(C)C[C@@H](C(=O)N1C[C@]2(C[C@H]1C#N)C(=O)Nc1ccccc12)N1Cc2cc(Cl)ccc2C1=O [Compound 12] | < 100 nM |
| CC(C)(F)C[C@@H](C(=O)N1C[C@]2(C[C@H]1C#N)C(=O)Nc1ccccc12)N1Cc2cc(Cl)ccc2C1=O [Compound 13] | < 100 nM |
| CC(C)(F)C[C@@H](C(=O)N1C[C@]2(C[C@H]1C#N)C(=O)Nc1ccccc12)N1Cc2c(Cl)cccc2C1=O [Compound 14] | < 100 nM |
| CC(C)(F)C[C@@H](C(=O)N1C[C@]2(C[C@H]1C#N)C(=O)Nc1ccccc12)N1Cc2ccc(Cl)cc2C1=O [Compound 15] | < 100 nM |
| CC(C)(F)C[C@@H](C(=O)N1C[C@]2(C[C@H]1C#N)C(=O)Nc1ccccc12)N1Cc2cccc(Cl)c2C1=O [Compound 16] | 100 to 1000 nM |
| COc1ccc2c(c1)CN([C@@H](CC(C)(C)C)C(=O)N1C[C@]3(C[C@H]1C#N)C(=O)Nc1ccccc13)C2=O [Compound 17] | < 100 nM |
| COc1ccc2c(c1)C(=O)N([C@@H](CC(C)(C)C)C(=O)N1C[C@]3(C[C@H]1C#N)C(=O)Nc1ccccc13)C2 [Compound 18] | < 100 nM |
| COc1cccc2c1CN([C@@H](CC(C)(C)C)C(=O)N1C[C@]3(C[C@H]1C#N)C(=O)Nc1ccccc13)C2=O [Compound 19] | < 100 nM |
| CC(C)(C)C[C@@H](C(=O)N1C[C@]2(C[C@H]1C#N)C(=O)Nc1ccccc12)N1Cc2cccnc2C1=O [Compound 20] | 100 to 1000 nM |
| CC(C)(F)C[C@@H](C(=O)N1C[C@]2(C[C@H]1C#N)C(=O)Nc1ccccc12)N1Cc2ncc(Cl)cc2C1=O [Compound 21] | < 100 nM |
| CC(C)C[C@@H](C(=O)N1C[C@]2(C[C@H]1C#N)C(=O)Nc1ccccc12)N1C(=O)c2ccccc2[C@H]1C [Compound 22-a, (3R,5'S)-1′-((S)-4-methyl-2-((R)-1-methyl-3-oxoisoindolin-2-yl)pentanoyl)-2-oxospiro[indoline-3,3′-pyrrolidine]-5′-carbonitrile] | < 100 nM |
| CC(C)C[C@@H](C(=O)N1C[C@]2(C[C@H]1C#N)C(=O)Nc1ccccc12)N1C(=O)c2ccccc2[C@@H]1C [Compound 22-b, (3R,5'S)-1′-((S)-4-methyl-2-((S)-1-methyl-3-oxoisoindolin-2-yl)pentanoyl)-2-oxospiro[indoline-3,3′-pyrrolidine]-5′-carbonitrile] | < 100 nM |
| C=C1c2ccccc2C(=O)N1[C@@H](CC(C)C)C(=O)N1C[C@]2(C[C@H]1C#N)C(=O)Nc1ccccc12 [Compound 22-c, (3R,5'S)-1′-((S)-4-methyl-2-(1-methylene-3-oxoisoindolin-2-yl)pentanoyl)-2-oxospiro[indoline-3,3′-pyrrolidine]-5′-carbonitrile] | < 100 nM |
| CC(C)(C)C[C@@H](C(=O)N1C[C@]2(C[C@H]1C#N)C(=O)Nc1ccccc12)N1C(=O)c2ccc(F)cc2C1(C)C [Compound 23, (3R,5'S)-1′-((S)-2-(6-fluoro-1,1-dimethyl-3-oxoisoindolin-2-yl)-4,4-dimethylpentanoyl)-2-oxospiro[indoline-3,3′-pyrrolidine]-5′-carbonitrile] | 100 to 1000 nM |
| CC(C)C[C@@H](C(=O)N1C[C@]2(C[C@H]1C#N)C(=O)Nc1ccccc12)N1C(=O)c2ccc(F)cc2C1(C)C [Compound 24] | > 1000 nM |
| CC(C)C[C@@H](C(=O)N1C[C@]2(C[C@H]1C#N)C(=O)Nc1ccccc12)n1cccc(-c2ccncc2)c1=O [Compound 26-a] | 100 to 1000 nM |
| CC(C)C[C@H](C(=O)N1C[C@]2(C[C@H]1C#N)C(=O)Nc1ccccc12)n1cccc(-c2ccncc2)c1=O [Compound 26-b] | > 1000 nM |
